Source: patent publication US20050132448A1, “Assay for beta cell toxic macrolides” (priority 2001, published 2005)
Entries after “also recorded” stand apart in the source; their conditions may differ.

Experiments:
vATPase = conditions: 275 nM; cited from earlier work
Balb/c mice [1] = test: Long-term effects on random blood glucose, weight and islet morphology/size; format: in vivo
Method: FIG. 6 is a graphical representation of islet size following administration of bafilomycin A1. Reduced islet size is a long-term consequence of vacuolar ATPase inhibition. Pancreas morphology was examined at either 1, 7, 26 or 90 days after administration of bafilomycin A1. Islet size was determined by measuring the areas of the pancreas sections positive for staining with insulin antibody using MCID software. • Controls—223 islets from 12 mice • 1 day—81 islets from 3 mice • 7 days—125 islets from 3 mice • 26 days—90 islets from 4 mice • 90 days—81 islets from 4 mice • The black square represents the median, the dotted boxes 25-75th percentiles, bars the 10-90th percentiles, and outliers by dots.
The pancreas, liver, kidney and brain were dissected from anaesthetised mice and immediately fixed in formalin. Paraffin embedded sections (4 μm) were either stained with haemotoxylin and eosin or prepared for immunohistochemistry or indirect immunofluorescence. Immunostaining was performed on de-paraffinised sections as follows. The section was blocked in PBS containing 1% skim milk powder for 1 hour. Anti-insulin antiserum raised in Guinea pig (Dako) was diluted 1 in 50 in PBS 1% skim milk powder and left at room temperature for 60 minutes. Sections were washed in PBS and incubated with 1:200 dilution of horse radish peroxidase conjugated anti-guinea pig antiserum (Sigma) or a 1:400 dilution of FITC-conjugated anti-guinea pig serum (Sigma) for 1 hour. Endogenous peroxidase activity was inactivated using 0.5% hydrogen peroxide in methanol prior to the antibody incubations and bound HRP conjugated antibody was detected using Sigma FAST-DAB peroxidase tablets. FITC was detected using an Olympus epifluorescence microsocope and images were captured and analysed using a digital camera and MCID software.
The long-term effects of bafilomycin A1 on blood glucose concentrations and islet morphology were investigated in 4 mice treated twice with a weekly interval. Random blood glucose levels (RBG) and weight were determined, weekly over 90 days and results were compared to a control group of 3 mice treated with carrier solution.

P-ATPase = conditions: 275 nM; cited from earlier work
Balb/c mice [2] = test: Intra-islet insulin by indirect immunofluorescence on pancreas sections; format: in vivo
Method: FIG. 2 is a graphical representation of vacuolar ATPase inhibition causing increased islet insulin content of secretory granules in islet β cells. Infra-islet insulin was detected in paraffin embedded sections by indirect immunofluorescence using an anti-pig insulin antibody. Digitised images collected on an epifluorescent microscope were analysed for staining density using MCID image analysis software to provide a semi-quantitative measure of the amount of bound anti-insulin antibody. At least 9 islets were measured for each of 5 control mice and 6 bafilomycin A1-treated mice, and individual values for each islet from all mice in each group were combined for analysis. A measurement was made in each islet, and the background measured in exocrine tissue adjacent to the same islet was subtracted. Units are arbitrary fluorescence units and the data are expressed as the mean and standard deviation.
The pancreas, liver, kidney and brain were dissected from anaesthetised mice and immediately fixed in formalin. […] Endogenous peroxidase activity was inactivated using 0.5% hydrogen peroxide in methanol prior to the antibody incubations and bound HRP conjugated antibody was detected using Sigma FAST-DAB peroxidase tablets. FITC was detected using an Olympus epifluorescence microsocope and images were captured and analysed using a digital camera and MCID software. […]

F-ATPase = conditions: 275 nM; cited from earlier work
C57B1/6J mice = test: Size and number of pancreatic islets after vATPase inhibitors; format: in vivo
Method: The effect of vATPase inhibitors on the size and number of pancreatic islets was analysed in C57B1/6J using either bafilomycin A1 (BA1) or concanamycin A (CMA). The effect of Streptozotocin, an islet beta-cell specific toxin produced by Streptomyces achromogenes was also examined, to enable comparison with the effect of vATPase inhibitors.
Groups of 4 female C57B1/6J mice were injected with 5 doses on 5 consecutive days of 12 ng/g body weight BA1, CMA or the well characterised islet β-cell toxin streptozotocin. Pancreases were removed on day 84 and 3 formalin-fixed sections per mouse were immunostained for insulin. The area of insulin-positive islets was measured on digital images using MCID software.

Compound: CO/C1=C\C(C)=C\[C@@H](C)[C@@H](O)[C@@H](C)C/C(C)=C/C=C/[C@H](OC)[C@@H]([C@@H](C)[C@@H](O)[C@H](C)[C@@]2(O)C[C@@H](O)[C@H](C)[C@@H](C(C)C)O2)OC1=O [bafilomycin A1]
- inhibition of in vitro vATPase activity (vATPase): sufficient to inhibit
- total islet area as a percentage of the total area of pancreas (Balb/c mice [1]; 1 day): 0.33%
- islet size vs controls (Balb/c mice [1]; 1 day treatment group): no differences
- total islet area as a percentage of the total area of pancreas (Balb/c mice [1]; 7 day treated mice): 0.30%
- islet size vs controls (Balb/c mice [1]; 7 day treatment group): no differences
- total islet area as a percentage of the total area of pancreas (Balb/c mice [1]; 26 day treated mice): 0.23%
- morphology of kidney, liver, testes and brain (Balb/c mice [1]; 90 day end-point): did not reveal any gross morphological changes
- morphology of the islets (Balb/c mice [1]; 90 day end-point, 2 doses): signs of fragmentation or neogenesis
- total islet area as a percentage of the total area of pancreas (Balb/c mice [1]; 90 day treated mice): 0.16%
- islet size vs controls (Balb/c mice [1]; treated 26 days previously): significant decrease
- mean islet size (Balb/c mice [1]; treated 26 days previously): 4900 μm2
- islet size vs controls (Balb/c mice [1]; treated 90 days previously): significant decrease
- mean islet size (Balb/c mice [1]; treated 90 days previously, 2 doses): 2800 μm^2
- increased level of RBG first detectable after treatment (Balb/c mice [1]; treated twice a week apart): 50 days
- weight of treated vs control groups (Balb/c mice [1]; treated twice a week apart, followed 90 days): did not differ significantly; also recorded: No significant difference
- random blood glucose levels (RBG) vs controls (Balb/c mice [1]; treated twice a week apart, weekly measurement for 90 days): small but significant increase
- inhibition of P-ATPase activity (P-ATPase): no detectable inhibition
- net fluorescence emitted by islets (median) (Balb/c mice [2]; 1 day after administration): 57.9 arbitrary fluorescence units
- net fluorescence emitted by islets (median) (Balb/c mice [2]; 7 days after administration): 59.9 arbitrary fluorescence units
- inhibition of F-ATPase activity (F-ATPase): no detectable inhibition
- No. islets per mm^2 pancreas section (C57B1/6J mice; day 84, 5 daily doses of 12 ng/g body weight): 0.85 per mm^2 pancreas section
- effect on islet number and size (C57B1/6J mice; i.p. 12 ng/gram body weight): increased the number of small islets
- Median size (C57B1/6J mice; insulin-positive islets, day 84, 5 daily doses of 12 ng/g body weight): 3830 μm^2
